Converted amounts (≈) assume the structure as drawn.

One may read the solubility (kinetic) as the concentration staying in solution when a stock, usually in DMSO, is diluted into the medium.

The conditions of the data set: buffer; pH 7.4; 200.0 µM.
With `CCOc1ccc2[nH]cc(-c3csc(N)n3)c2c1`, the kinetic solubility came out at 20.5 µg/mL (≈ 79 µM). With `O=C(NCC1CCCO1)c1cccc(NC(=O)c2ccccc2)c1` (stereo not given), the solubility (kinetic) is more than 48.7 µg/mL. `COc1ccc(NC(=O)CS(=O)c2ccccc2Cl)cc1` (stereo not given) yielded a solubility (kinetic) of more than 48.6 µg/mL. In the case of `CC1(C)C(c2cccs2)=[N+]([O-])C2(CCCCC2=O)N1O` (stereo not given) it was 41.4 µg/mL (≈ 141 µM). In the case of `Cc1ccccc1Oc1ncnc(N)c1[N+](=O)[O-]` it was 9.8 µg/mL (≈ 39.8 µM); in that of `CC(C)(C)N(Cc1ccccc1)C(=O)COC(=O)c1ccc2ccccc2n1`, 3 µg/mL (≈ 7.97 µM).

For the molecule `O=C(Nc1c[nH]c(=O)[nH]c1=O)c1cccc(F)c1`, the kinetic solubility came out at 12.2 µg/mL (≈ 49 µM).

On to `O=C(O)C1C2C=CC(C2)C1C(=O)NCc1ccccc1F` (stereo not given), for which the solubility (kinetic) is more than 43.4 µg/mL. Turning to `CCCCN(C)Cc1cc(=O)oc2cc3c(cc12)CCCC3`, the kinetic solubility is less than 0.6 µg/mL. The result for `c1ccc2[nH]cnc2c1` reads more than 17.7 µg/mL.

The molecule `O=C1NC2(CCCCC2)C(=O)N1Cc1cc(=O)n2ccsc2n1` yielded a kinetic solubility of 44.7 µg/mL (≈ 134 µM).

With `COC(=O)CSc1nc2sc3c(c2c(=O)[nH]1)CCC3`, the solubility (kinetic) came to 15.7 µg/mL (≈ 53 µM). In the case of `O=C(O)/C=C/C(=O)Nc1ccc(S(=O)(=O)Nc2nccs2)cc1` it was more than 53 µg/mL. The result for `CN(Cc1ccccc1N1CCCC1)C(=O)c1cc2ccccc2o1` reads 11.1 µg/mL (≈ 33.2 µM). In the case of `COC(=O)c1cc(S(=O)(=O)NCc2cccs2)c[nH]1` it was more than 45.1 µg/mL; in that of `Brc1ccc(-c2csc(N3CCOCC3)n2)cc1`, less than 0.3 µg/mL; in that of `CC1CCCCC1NC(=O)C1CC(=O)N(Cc2ccccc2)C1` (stereo not given), more than 47.2 µg/mL. Molecule `CCN1CCN(c2ccc(S(=O)(=O)N3CCOCC3)cc2NC(=O)c2cccc([N+](=O)[O-])c2)CC1` registered a solubility (kinetic) of more than 75.5 µg/mL. The molecule `Nc1cccc(P(=O)(c2ccccc2)c2ccccc2)c1` displayed a kinetic solubility of more than 44 µg/mL. `C#CCN1CCN(c2ccc(F)cc2)CC1` displayed a solubility (kinetic) of 30 µg/mL (≈ 137 µM). Regarding `Cc1snc(SCc2c(F)cccc2Cl)c1C#N`, the kinetic solubility was less than 0.3 µg/mL. In the case of `O=C(NCCc1ccc(F)cc1)c1cc(=O)c2ccccc2o1` it was 9.4 µg/mL (≈ 30.2 µM); in that of `CCC1Oc2ccc(C)cc2N(CC(=O)N2CCCC2)C1=O` (stereo not given), more than 45.4 µg/mL. `O=Cc1c(C(=O)O)n(Cc2ccccc2Cl)c2ccccc12`: the kinetic solubility was more than 47.1 µg/mL. The result for `CC(=O)Nc1ccc(SCC(=O)NC(=O)c2ccc(S(=O)(=O)N(C)C)cc2)cc1` reads more than 65.3 µg/mL.

The molecule `O=C(NCC1CCCO1)c1cc2ccccc2cc1O` (stereo not given) showed a kinetic solubility of more than 40.7 µg/mL. The result for `CCC(=O)Nc1ccc(C(=O)CN2CCC(C)CC2)cc1` reads 39.4 µg/mL (≈ 137 µM); that for `CC(C)CCNC(=O)c1cc2c(=O)[nH]c3ccccc3c2s1`, less than 0.3 µg/mL.

Take `O=C(O)c1nn(-c2ccc(F)cc2)ccc1=O`: the kinetic solubility is more than 35.1 µg/mL. The molecule `N#Cc1ccc(NC(=O)CN2CCCC2)cc1Cl` yielded a kinetic solubility of more than 39.6 µg/mL.

For `N#CCC(=O)Nc1ncc(Cc2ccccc2Cl)s1`, the kinetic solubility worked out at 1 µg/mL (≈ 3.43 µM). The result for `CN1CCC(N(C)C(=O)c2cc(S(=O)(=O)N3CCOCC3)ccc2Cl)CC1.Cl` reads more than 67.9 µg/mL.

The molecule `Cc1cccc(NC(=O)/C(C#N)=C/c2ccc[nH]2)c1C` showed a kinetic solubility of 2.1 µg/mL (≈ 7.92 µM). The result for `Cc1ccc(S(=O)(=O)c2c[nH]c3cc4c(cc3c2=O)OCO4)cc1` reads 2 µg/mL (≈ 5.82 µM); that for `O=Cc1c(NCc2ccc(Cl)cc2)c2ccccc2[nH]c1=O`, 2.8 µg/mL (≈ 8.95 µM); that for `CC1CCCN(c2nc3nonc3nc2Nc2ccccc2F)C1` (stereo not given), 0.8 µg/mL (≈ 2.44 µM). In the case of `CC(=O)c1c(OCC(=O)N(C)C2CCCCC2)ccc2c(C)cc(=O)oc12`, the solubility (kinetic) was more than 55.7 µg/mL. As for `CC(Sc1nccn1C)C(=O)NC1(C#N)CCCCC1` (stereo not given), the solubility (kinetic) was more than 43.9 µg/mL.

`O=C(NC1CCCC1)C(=O)c1c[nH]c2ccccc12` displayed a kinetic solubility of 12.1 µg/mL (≈ 47.2 µM). Turning to `Cc1ccc(C(=O)NC(C)c2ccc(-n3ccnc3)cc2)c(C)c1` (stereo not given), the kinetic solubility worked out at 46 µg/mL (≈ 144 µM). In turn, `O=C(Nc1ccc(OC(F)(F)F)cc1)c1cnccn1` returned a kinetic solubility of 11.3 µg/mL (≈ 39.9 µM). This solubility kinetic is about 4.1-fold lower than that of the molecule before. `O=C(O)/C=C\C(=O)O.c1ccc(Sc2ccccc2CN2CCCC2)cc1` had a kinetic solubility of more than 57.8 µg/mL.

On to `CCOCCc1c(O)nc(SCC)[nH]c1=O`, for which the kinetic solubility is more than 36.6 µg/mL. The molecule `O=C(/C=C/c1cccs1)N1CCCC1` gave a solubility (kinetic) of more than 31.1 µg/mL. In the case of `O=C(/C=C/c1ccco1)Nc1ccc2c(c1)OCO2` it was 36.8 µg/mL (≈ 143 µM); in that of `COc1ccc(C(=O)NC2CCCCCC2)cc1S(=O)(=O)N1CCCC1`, 6 µg/mL (≈ 15.8 µM); in that of `Cc1ccc(NC(=O)CC2(CC(=O)O)CCCC2)c(C)c1`, 40.8 µg/mL (≈ 141 µM). Molecule `Cc1cccc(/C(N)=N/OC(=O)CCCc2ccccc2)c1` showed a solubility (kinetic) of 1.8 µg/mL (≈ 6.07 µM). The result for `CC1CCCN(C(=O)C2CCN(C(=O)Nc3ccccc3)CC2)C1` (stereo not given) reads more than 49.4 µg/mL; that for `Cc1nc(Cl)c(C(=O)NCc2ccccc2)c(C)c1[N+](=O)[O-]`, 10.8 µg/mL (≈ 33.8 µM). In the case of `Cc1ccccc1-c1nnc(SCC(=O)Nc2cccnc2Cl)o1` it was more than 54.1 µg/mL; in that of `O=C(CSc1nncc2ccccc12)Nc1cccc(C(=O)O)c1`, more than 50.9 µg/mL. `CC(=O)N1CCN(C(=O)CCCNC(=O)c2ccc(Cl)cc2)CC1` returned a kinetic solubility of more than 52.8 µg/mL.

The molecule `Cn1nc(C(=O)NC2CCC(O)CC2)c2ccccc2c1=O` (stereo not given) showed a solubility (kinetic) of more than 45.2 µg/mL. As for `NC(=O)Nc1ccc(C(=O)OCC(=O)NC2CCCCC2)cc1`, the solubility (kinetic) amounted to 37.5 µg/mL (≈ 117 µM). Molecule `CC1CCN(C(=O)c2ccc(S(=O)(=O)N3CCCCCC3)cc2)CC1` yielded a kinetic solubility of 26 µg/mL (≈ 71.3 µM). The result for `O=C(Nc1ccc(F)cc1F)N1CCCN(c2ccc(C(F)(F)F)cn2)CC1` reads 7.3 µg/mL (≈ 18.2 µM); that for `CC(C)c1onc(C(=O)Nc2ccc3c(c2)OCO3)c1[N+](=O)[O-]`, more than 47.9 µg/mL. In the case of `O=C1/C(=C/c2ccccn2)SC(=S)N1c1cccc(O)c1` it was 0.4 µg/mL (≈ 1.27 µM); in that of `CC(C)(C)c1csc(Sc2ccc([N+](=O)[O-])cn2)n1`, 1.1 µg/mL (≈ 3.72 µM). In the case of `O=C(COC(=O)c1ccc[nH]c1=O)Nc1ccc(N2CCCCC2)cc1` it was more than 53.3 µg/mL; in that of `COc1ccc(OC)c(N/C(C)=C/C(=O)c2ccncc2)c1`, 36.9 µg/mL (≈ 124 µM); in that of `O=C(NS(=O)(=O)Nc1ccccn1)c1c[nH]c2ccccc12`, more than 47.4 µg/mL. In turn, `Cc1nn(CC(=O)N2CCc3ccccc32)c(C)c1S(=O)(=O)NC(C)(C)C` displayed a solubility (kinetic) of more than 58.6 µg/mL.

The molecule `O=C(c1ccc(COc2ccccc2Cl)o1)N1CCOCC1` registered a kinetic solubility of 34.4 µg/mL (≈ 107 µM).

On to `Cc1ccc2cc(C)c(SCC(=O)Nc3cc(C)on3)nc2c1`, for which the solubility (kinetic) is less than 0.2 µg/mL. The molecule `O=C(CSc1ncnc2ccccc12)NCC(=O)c1ccccc1` showed a solubility (kinetic) of 7.1 µg/mL (≈ 21 µM). In the case of `Cc1ccc(S(=O)(=O)N[C@H](C(=O)OCC(=O)NC(=O)C2CCCCC2)C(C)C)cc1`, the solubility (kinetic) was determined as 11.4 µg/mL (≈ 26 µM). Take `COc1cc(C(=O)NC2CCCc3ccccc32)cc(OC)c1C` (stereo not given): the kinetic solubility is less than 0.7 µg/mL.

Consider `COc1cc(Nc2ncnc(N)n2)cc(OC)c1OC`, for which the kinetic solubility was more than 41.6 µg/mL. The result for `Cc1cc(C)c2nc(NC(=O)c3ccco3)sc2c1` reads 0.4 µg/mL (≈ 1.47 µM); that for `O=C(Nc1cccc(S(=O)(=O)NC2=NCCC2)c1)c1ccc(F)cc1F`, 25.8 µg/mL (≈ 68 µM). Turning to `CCc1cc2ccccc2nc1Cl`, the solubility (kinetic) was less than 0.4 µg/mL. In the case of `COc1cc(-c2noc(CCC(=O)NC3CCCCC3)n2)cc(OC)c1OC` it was 10 µg/mL (≈ 25.7 µM); in that of `c1nc2ccc(Cc3ccc4nc[nH]c4c3)cc2[nH]1`, 34.3 µg/mL (≈ 138 µM); in that of `O=C1NCCCCC1NS(=O)(=O)c1ccccc1` (stereo not given), more than 40.2 µg/mL. Take `Cc1cnc(C(=O)OCC(=O)NCc2ccc(Cl)cc2)cn1`: the solubility (kinetic) was more than 48 µg/mL. `N[C@@H](Cc1c[nH]c2ccc(O)cc12)C(=O)O` showed a kinetic solubility of 32.6 µg/mL (≈ 148 µM). The result for `COc1ccc(NC(=O)c2sc3nc(C)cc(C)c3c2N)cc1` reads less than 0.2 µg/mL. The molecule `Cc1cccc(CCN=C(N)NS(=O)(=O)c2ccccc2)c1` gave a solubility (kinetic) of more than 47.6 µg/mL.

`CCCC(=O)Nc1nc(C)c(C(C)=O)s1`: the kinetic solubility was more than 33.9 µg/mL. In turn, `COC(=O)c1ccc(NC(=O)CCCN2C(=O)NC(C)(C)C2=O)cc1` displayed a kinetic solubility of more than 52.1 µg/mL. For `CCOc1ccccc1C(=O)Nc1c[nH]c(=O)[nH]c1=O`, the solubility (kinetic) stood at 2.4 µg/mL (≈ 8.72 µM). The result for `CC(C)NC(=O)c1cc(-c2cccs2)nc2ccccc12` reads 4.6 µg/mL (≈ 15.5 µM). Take `Cc1ccc(C(=O)N2CCN(C34CC5CC(CC(C5)C3)C4)CC2)o1`: the kinetic solubility was more than 49.3 µg/mL.

`CCCCn1c(O)c(C(C)=NCc2ccc3c(c2)OCO3)c(=O)[nH]c1=O` displayed a solubility (kinetic) of 0.6 µg/mL (≈ 1.67 µM). The result for `Cc1ccccc1CN1CCN(C(=O)CC(C)C)CC1` reads 27 µg/mL (≈ 98.4 µM). With `CCCn1c(SCC(=O)Nc2ccc(Cl)cc2F)nc(O)cc1=O`, the kinetic solubility is more than 55.8 µg/mL.

For `O=C(N/N=C/c1ccc(O)c(O)c1)C1CC1`, the kinetic solubility is more than 33 µg/mL. The result for `COc1ccccc1CC(=O)NC1CC1` reads 29.6 µg/mL (≈ 144 µM). The molecule `Cc1cccc(C)c1NC(=O)CNC(=O)c1ccccc1` registered a solubility (kinetic) of 24.9 µg/mL (≈ 88.2 µM). The result for `Cc1nc2ccccn2c1C(=O)CSc1ccccc1` reads more than 42.4 µg/mL; that for `Cc1cccc(C)c1OCc1cc(C(=O)NCC2CC2)no1`, 4.6 µg/mL (≈ 15.3 µM); that for `CC(O)CNCCOc1ccccc1-c1ccccc1.O=C(O)C(=O)O` (stereo not given), more than 54.2 µg/mL. Take `O=C(NC(=S)N1CCCCC1CO)c1cccs1` (stereo not given): the solubility (kinetic) is more than 42.7 µg/mL. In the case of `CC(C)=CC(=O)OCc1csc(CC(=O)Nc2ccccc2C)n1` it was more than 51.7 µg/mL; in that of `CN(C)CCCN1C(=O)C2CCc3[nH]c4ccccc4c3C2C1=O` (stereo not given), more than 48.8 µg/mL.

Molecule `O=C1CN(C(=O)c2ccc(Cl)nc2)c2ccccc2N1` gave a kinetic solubility of 33.3 µg/mL (≈ 116 µM). The result for `CC(CCc1ccccc1)NC(=O)C1CC1` (stereo not given) reads more than 32.6 µg/mL; that for `O=C(Nc1ccc(F)cc1)Nc1cccc(Br)c1`, 0.7 µg/mL (≈ 2.26 µM); that for `NC(=S)Nc1ccc(F)cc1F`, more than 28.2 µg/mL. With `CCc1ccc(OCC(=O)OC(C)C(=O)NC2CC2)cc1` (stereo not given), the kinetic solubility is more than 43.7 µg/mL.

Turning to `Cc1nc2ccccc2c2c1CC(C)S2` (stereo not given), the kinetic solubility came to 24.5 µg/mL (≈ 114 µM).

In turn, `Cc1ccc(NCc2ccc(O)c3ncccc23)cc1C` had a solubility (kinetic) of 3.6 µg/mL (≈ 12.9 µM). This solubility kinetic lies about 6.8-fold lower than the previous one. `CNc1cc(Cl)nc(SC)n1` yielded a kinetic solubility of more than 28.4 µg/mL.

The values above are taken from PubChem BioAssay AID1996.
